According to patent US10494355B2, “Oxadiazole amine derivative compounds as histone deacetylase 6 inhibitor, and the pharmaceutical composition comprising the same” (Chong Kun Dang Pharmaceutical Corp., priority 2015, dated 2019):

Columns and labels:
human recombinant HDAC6 = target: T1, human recombinant HDAC6 (Homo sapiens, UniProt Q9UBN7); test: HDAC6 enzyme activity inhibition assay (HDAC Fluorimetric Drug Discovery Kit); assay type: biochemical; settings: 30° C. 60 minutes
T1 construct: purchased Calbiochem 382180
T1 sequence (Q9UBN7 1-1215): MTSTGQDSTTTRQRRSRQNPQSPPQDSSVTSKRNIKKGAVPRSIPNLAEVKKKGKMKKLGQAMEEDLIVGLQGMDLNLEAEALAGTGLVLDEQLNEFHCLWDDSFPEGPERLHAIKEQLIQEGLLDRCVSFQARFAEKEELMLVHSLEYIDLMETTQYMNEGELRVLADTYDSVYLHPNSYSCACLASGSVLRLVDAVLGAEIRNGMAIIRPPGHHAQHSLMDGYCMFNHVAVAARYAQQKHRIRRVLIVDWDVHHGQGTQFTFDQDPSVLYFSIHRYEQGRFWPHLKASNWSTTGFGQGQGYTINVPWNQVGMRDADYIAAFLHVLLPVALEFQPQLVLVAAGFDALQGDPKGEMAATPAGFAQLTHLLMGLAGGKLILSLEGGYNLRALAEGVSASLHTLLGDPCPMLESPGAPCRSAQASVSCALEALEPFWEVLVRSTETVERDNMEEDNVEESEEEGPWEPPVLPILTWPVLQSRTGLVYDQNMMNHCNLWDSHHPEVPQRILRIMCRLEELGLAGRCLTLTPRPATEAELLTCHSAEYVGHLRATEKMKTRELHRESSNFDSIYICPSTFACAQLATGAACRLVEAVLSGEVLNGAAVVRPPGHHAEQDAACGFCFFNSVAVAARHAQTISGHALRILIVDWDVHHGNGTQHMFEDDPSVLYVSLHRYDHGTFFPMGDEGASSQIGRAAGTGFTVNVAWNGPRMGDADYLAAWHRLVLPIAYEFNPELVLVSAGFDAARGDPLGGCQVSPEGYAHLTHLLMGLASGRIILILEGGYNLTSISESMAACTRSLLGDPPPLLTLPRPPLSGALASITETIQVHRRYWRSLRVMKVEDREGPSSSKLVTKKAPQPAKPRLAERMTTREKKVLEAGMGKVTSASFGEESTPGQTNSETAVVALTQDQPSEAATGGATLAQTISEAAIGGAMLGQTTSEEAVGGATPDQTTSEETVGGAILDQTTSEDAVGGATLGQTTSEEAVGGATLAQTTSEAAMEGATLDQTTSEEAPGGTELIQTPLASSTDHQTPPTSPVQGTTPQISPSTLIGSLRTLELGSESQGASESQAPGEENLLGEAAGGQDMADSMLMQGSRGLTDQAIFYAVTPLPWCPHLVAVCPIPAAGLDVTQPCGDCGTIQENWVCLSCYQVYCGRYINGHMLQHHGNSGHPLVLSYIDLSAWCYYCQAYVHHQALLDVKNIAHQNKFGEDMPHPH
Outline: (§1)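 Human recombinant enzyme, 0.3 μg, incubated with 10 μM Fluor de Lys-SIRT1 substrate and 5-fold compound dilutions at 30° C for 60 min. Developer II added for 30 min, then fluorescence read (Ex 360/Em 460). IC50 values derived from the fluorescence data.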

human recombinant HDAC1 = target: T2, human recombinant HDAC1 (Homo sapiens, UniProt Q13547); test: HDAC1 enzyme activity inhibition assay (HDAC Fluorimetric Drug Discovery Kit); assay type: biochemical; settings: human recombinant HDAC1, 10 μM substrate, 30° C. 60 minutes
T2 construct: purchased Enzo Life Science BML-SE456
Outline: as §1

T2 sequence (Q13547 whole entry): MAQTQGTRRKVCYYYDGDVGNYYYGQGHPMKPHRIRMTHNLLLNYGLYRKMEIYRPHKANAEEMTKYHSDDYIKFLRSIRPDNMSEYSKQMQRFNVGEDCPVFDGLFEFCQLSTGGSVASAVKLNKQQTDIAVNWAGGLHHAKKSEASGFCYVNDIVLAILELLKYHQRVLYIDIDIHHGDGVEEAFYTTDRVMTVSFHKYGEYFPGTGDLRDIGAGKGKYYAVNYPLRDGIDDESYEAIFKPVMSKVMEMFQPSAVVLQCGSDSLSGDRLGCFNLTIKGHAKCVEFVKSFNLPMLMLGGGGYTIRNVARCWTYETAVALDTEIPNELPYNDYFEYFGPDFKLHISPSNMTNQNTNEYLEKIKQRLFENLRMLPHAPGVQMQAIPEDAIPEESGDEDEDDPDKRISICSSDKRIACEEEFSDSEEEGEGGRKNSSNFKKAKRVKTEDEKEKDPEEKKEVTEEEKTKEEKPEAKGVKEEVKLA

| SMILES | IC50 (human recombinant HDAC6) | IC50 (human recombinant HDAC1) |
| --- | --- | --- |
| FC(F)c1nnc(-c2cnc(NC3(Cc4ccccc4)CCC3)nc2)o1 [Compound 2030, N-(1-benzylcyclobutyl)-5-(5-(difluoromethyl)-1,3,4-oxadiazol-2-yl)pyrimidin-2-amine] | 758 nM | > 10000 nM |
| CN1CCC(c2ccc(C3(Nc4ncc(-c5nnc(C(F)F)o5)cn4)CCC3)cc2)CC1 [Compound 2035, 5-(5-(difluoromethyl)-1,3,4-oxadiazol-2-yl)-N-(1-(4-(1-methylpiperidin-4-yl)phenyl)cyclobutyl)pyrimidin-2-amine] | 367 nM | > 10000 nM |
| CCN1CCC(c2ccc(C3(Nc4ncc(-c5nnc(C(F)F)o5)cn4)CCC3)cc2)CC1 [Compound 2036, 5-(5-(difluoromethyl)-1,3,4-oxadiazol-2-yl)-N-(1-(4-(1-ethylpiperidin-4-yl)phenyl)cyclobutyl)pyrimidin-2-amine] | 478 nM | > 10000 nM |
| CC(C)N1CCC(c2ccc(C3(Nc4ncc(-c5nnc(C(F)F)o5)cn4)CCC3)cc2)CC1 [Compound 2037, 5-(5-(difluoromethyl)-1,3,4-oxadiazol-2-yl)-N-(1-(4-(1-isopropylpiperidin-4-yl)phenyl)cyclobutyl)pyrimidin-2-amine] | 397 nM | > 10000 nM |
| FC(F)c1nnc(-c2cnc(NC3(c4ccsc4)CCC3)nc2)o1 [Compound 2038, 5-(5-(difluoromethyl)-1,3,4-oxadiazol-2-yl)-N-(1-(thiophen-3-yl)cyclobutyl)pyrimidin-2-amine] | 111 nM | > 10000 nM |
| FC(F)c1nnc(-c2cnc(NC3(c4cccs4)CC3)nc2)o1 [Compound 2040, 5-(5-(difluoromethyl)-1,3,4-oxadiazol-2-yl)-N-(1-(thiophen-2-yl)cyclopropyl)pyrimidin-2-amine] | 100 nM | > 10000 nM |
| FC(F)c1nnc(-c2cnc(NC3(c4ccc(N5CCCCC5)cc4)CCC3)nc2)o1 [Compound 2041, 5-(5-(difluoromethyl)-1,3,4-oxadiazol-2-yl)-N-(1-(4-(piperidin-1-yl)phenyl)cyclobutyl)pyrimidin-2-amine] | 189 nM | > 10000 nM |
| FC(F)c1nnc(-c2cnc(NC3(c4ccccc4C(F)(F)F)CCC3)nc2)o1 [Compound 2042, 5-(5-(difluoromethyl)-1,3,4-oxadiazol-2-yl)-N-(1-(2-(trifluoromethyl)phenyl)cyclobutyl)pyrimidin-2-amine] | 173 nM | > 10000 nM |
| FC(F)c1nnc(-c2cnc(NC3(c4ccc(C(F)(F)F)cc4)CCC3)nc2)o1 [Compound 2043, 5-(5-(difluoromethyl)-1,3,4-oxadiazol-2-yl)-N-(1-(4-(trifluoromethyl)phenyl)cyclobutyl)pyrimidin-2-amine] | 277 nM | > 10000 nM |
| FC(F)(F)c1ccc(C2(Nc3ncc(-c4nnc(C(F)(F)F)o4)cn3)CCC2)cc1 [Compound 2044, 5-(5-(trifluoromethyl)-1,3,4-oxadiazol-2-yl)-N-(1-(4-(trifluoromethyl)phenyl)cyclobutyl)pyrimidin-2-amine] | 1740 nM | > 10000 nM |
| Fc1ccc(C2(Nc3ncc(-c4nnc(C(F)F)o4)cn3)CCC2)cc1N1CCOCC1 [Compound 2046, 5-(5-(difluoromethyl)-1,3,4-oxadiazol-2-yl)-N-(1-(4-fluoro-3-morpholinophenyl)cyclobutyl)pyrimidin-2-amine] | 329 nM | > 10000 nM |
| COc1cccc(C2(Nc3ncc(-c4nnc(C(F)F)o4)cn3)CC2)c1 [Compound 2048, 5-(5-(difluoromethyl)-1,3,4-oxadiazol-2-yl)-N-(1-(3-methoxyphenyl)cyclopropyl)pyrimidin-2-amine] | 63 nM | > 10000 nM |
| FC(F)(F)c1nnc(-c2cnc(NC3(c4cccc(Cl)c4)CC3)nc2)o1 [Compound 2051, N-(1-(3-chlorophenyl)cyclopropyl)-5-(5-(trifluoromethyl)-1,3,4-oxadiazol-2-yl)pyrimidin-2-amine] | 152 nM | > 10000 nM |
| FC(F)c1nnc(-c2cnc(NC3(c4ccc(Cl)cc4)CC3)nc2)o1 [Compound 2052, N-(1-(4-chlorophenyl)cyclopropyl)-5-(5-(difluoromethyl)-1,3,4-oxadiazol-2-yl)pyrimidin-2-amine] | 75 nM | > 10000 nM |
| FC(F)(F)c1nnc(-c2cnc(NC3(c4ccc(Cl)cc4)CC3)nc2)o1 [Compound 2053, N-(1-(4-chlorophenyl)cyclopropyl)-5-(5-(trifluoromethyl)-1,3,4-oxadiazol-2-yl)pyrimidin-2-amine] | 519 nM | > 10000 nM |
| Fc1cc(C2(Nc3ncc(-c4nnc(C(F)F)o4)cn3)CC2)ccc1Cl [Compound 2054, N-(1-(4-chloro-3-fluorophenyl)cyclopropyl)-5-(5-(difluoromethyl)-1,3,4-oxadiazol-2-yl)pyrimidin-2-amine] | 83 nM | > 10000 nM |
| FC(F)c1nnc(-c2cnc(NC3(c4cccc(C5CCN(C6COC6)CC5)c4)CCC3)nc2)o1 [Compound 2060, 5-(5-(difluoromethyl)-1,3,4-oxadiazol-2-yl)-N-(1-(3-(1-(oxetan-3-yl)piperidin-4-yl)phenyl)cyclobutyl)pyrimidin-2-amine] | 221 nM | > 10000 nM |
| FC(F)c1nnc(-c2cnc(NC3(c4ccc(N5CCOCC5)cc4)CCC3)nc2)o1 [Compound 2062, 5-(5-(difluoromethyl)-1,3,4-oxadiazol-2-yl)-N-(1-(4-morpholinophenyl)cyclobutyl)pyrimidin-2-amine] | 256 nM | > 10000 nM |

The next compounds have a lower IC50 (human recombinant HDAC6) than those just listed; values first:

| IC50 (human recombinant HDAC6) | IC50 (human recombinant HDAC1) | SMILES |
| --- | --- | --- |
| 61 nM | > 10000 nM | Fc1ccc(C2(Nc3ncc(-c4nnc(C(F)F)o4)cn3)CCC2)cc1F [Compound 2045, 5-(5-(difluoromethyl)-1,3,4-oxadiazol-2-yl)-N-(1-(3,4-difluorophenyl)cyclobutyl)pyrimidin-2-amine] |
| 51 nM | > 10000 nM | COc1ccc(C2(Nc3ncc(-c4nnc(C(F)F)o4)cn3)CC2)cc1 [Compound 2049, 5-(5-(difluoromethyl)-1,3,4-oxadiazol-2-yl)-N-(1-(4-methoxyphenyl)cyclopropyl)pyrimidin-2-amine] |
| 43 nM | > 10000 nM | Fc1ccc(C2(Nc3ncc(-c4nnc(C(F)F)o4)cn3)CC2)c(F)c1 [Compound 2061, 5-(5-(difluoromethyl)-1,3,4-oxadiazol-2-yl)-N-(1-(2,4-difluorophenyl)cyclopropyl)pyrimidin-2-amine] |
| 39 nM | > 10000 nM | Fc1ccc(C2(Nc3ncc(-c4nnc(C(F)F)o4)cn3)CC2)cc1F [Compound 2058, 5-(5-(difluoromethyl)-1,3,4-oxadiazol-2-yl)-N-(1-(3,4-difluorophenyl)cyclopropyl)pyrimidin-2-amine] |
| 35 nM | > 10000 nM | Fc1cc(Cl)ccc1C1(Nc2ncc(-c3nnc(C(F)F)o3)cn2)CC1 [Compound 2056, N-(1-(4-chloro-2-fluorophenyl)cyclopropyl)-5-(5-(difluoromethyl)-1,3,4-oxadiazol-2-yl)pyrimidin-2-amine] |
| 33 nM | > 10000 nM | Fc1cc(F)cc(C2(Nc3ncc(-c4nnc(C(F)F)o4)cn3)CC2)c1 [Compound 2057, 5-(5-(difluoromethyl)-1,3,4-oxadiazol-2-yl)-N-(1-(3,5-difluorophenyl)cyclopropyl)pyrimidin-2-amine] |
| 32 nM | > 10000 nM | COc1ccccc1C1(Nc2ncc(-c3nnc(C(F)F)o3)cn2)CC1 [Compound 2047, 5-(5-(difluoromethyl)-1,3,4-oxadiazol-2-yl)-N-(1-(2-methoxyphenyl)cyclopropyl)pyrimidin-2-amine] |
| 31 nM | > 10000 nM | Cc1ccccc1C1(Nc2ncc(-c3nnc(C(F)F)o3)cn2)CC1 [Compound 2055, 5-(5-(difluoromethyl)-1,3,4-oxadiazol-2-yl)-N-(1-(o-tolyl)cyclopropyl)pyrimidin-2-amine] |
| 26 nM | > 10000 nM | FC(F)c1nnc(-c2cnc(NC3(c4cccc(Cl)c4)CC3)nc2)o1 [Compound 2050, N-(1-(3-chlorophenyl)cyclopropyl)-5-(5-(difluoromethyl)-1,3,4-oxadiazol-2-yl)pyrimidin-2-amine] |
